Data set [1] relates to RAW264.7. The experiment in a line: Antiinflammatory activity against mouse RAW 264.7 cells assessed as inhibition of LPS-induced NO production incubated for 24 hrs by Griess assay. It is filed as functional, cell-based. The following applies: RAW264.7, 24 h. A general note: Griess reagent forms a coloured azo dye with nitrite.
Data set [2] deals with RAW264.7. The experiment in a line: Antiinflammatory activity against mouse RAW 264.7 cells assessed as inhibition of LPS-induced IL-1beta mRNA level at 50 uM preincubated for 1 hr followed by LPS addition measured after 16 hrs by RT-PCR analysis. It is filed as functional, cell-based. The following applies: time 17.0 hrs.
Data set [3] deals with RAW264.7. The experiment in a line: Antiinflammatory activity against mouse RAW 264.7 cells assessed as inhibition of LPS-induced TNF-alpha mRNA level at 50 uM preincubated for 1 hr followed by LPS addition measured after 16 hrs by RT-PCR analysis. The class given is functional, cell-based. The following applies: time 17.0 hrs.
Data set [4] has as its system RAW264.7. Kind of data set: Antiinflammatory activity against mouse RAW 264.7 cells assessed as inhibition of LPS-induced IL-1alpha mRNA level at 50 uM preincubated for 1 hr followed by LPS addition measured after 16 hrs by RT-PCR analysis. The class given is functional, cell-based. The settings on record: time 17.0 hrs.
In data set [5] the test system is RAW264.7. Kind of data set: Antiinflammatory activity against mouse RAW 264.7 cells assessed as inhibition of LPS-induced COX2 production at 50 uM preincubated for 1 hr followed by LPS addition measured after 16 hrs by Western blot analysis. It is filed as functional, cell-based. The settings on record: time 17.0 hrs.
Data set [6] has as its system RAW264.7. The experiment in a line: Antiinflammatory activity against mouse RAW 264.7 cells assessed as inhibition of LPS-induced IL-6 mRNA level at 50 uM preincubated for 1 hr followed by LPS addition measured after 16 hrs by RT-PCR analysis. It is filed as functional, cell-based. The settings on record: time 17.0 hrs.
Data set [7] concerns RAW264.7. The experiment in a line: Antiinflammatory activity against mouse RAW 264.7 cells assessed as inhibition of LPS-induced NO production at 50 uM incubated for 24 hrs by Griess assay relative to control. It is filed as functional.
The subject of data set [8] is RAW264.7. The experiment in a line: Antiinflammatory activity against mouse RAW 264.7 cells assessed as inhibition of LPS-induced translocation into nucleus at 50 uM by preincubated for 1 hr followed by LPS addition measured after 16 hrs by immunofluorescence assay. It is filed as functional, cell-based. The following applies: time 17.0 hrs.
The test system of data set [9] is RAW264.7. The experiment in a line: Antiinflammatory activity against mouse RAW 264.7 cells assessed as inhibition of LPS-induced iNOS production at 50 uM preincubated for 1 hr followed by LPS addition measured after 16 hrs by Western blot analysis. The class given is functional, cell-based. The settings on record: time 17.0 hrs. Background: A western blot detects proteins with antibodies after separation by electrophoresis.

For data set [10], the system named is RAW264.7. The experiment in a line: Cytotoxicity against mouse RAW 264.7 cells incubated for 24 hrs by MTT assay. The class given is cell-based. The settings on record: raw264.7, 24 h. (In general: Formazan colour is commonly taken as a measure of viable cells.)
Data set [11] relates to RAW264.7. The experiment in a line: Antiinflammatory activity against mouse RAW 264.7 cells assessed as inhibition of LPS-induced IkappaB-alpha level preincubated for 1 hr followed by LPS addition measured after 16 hrs by Western blot analysis. The settings on record: time 17.0 hrs. The class given is functional, cell-based.
In data set [12] the test system is RAW264.7. The experiment in a line: Antiinflammatory activity against mouse RAW 264.7 cells assessed as inhibition of LPS-induced TNF-alpha mRNA level upto 50 uM preincubated for 1 hr followed by LPS addition measured after 16 hrs by RT-PCR analysis. It is filed as functional, cell-based. The settings on record: dose microM <=50, time 17.0 hrs.
Data set [13] concerns RAW264.7. Kind of data set: Antiinflammatory activity against mouse RAW 264.7 cells assessed as inhibition of LPS-induced IL-6 mRNA level upto 50 uM preincubated for 1 hr followed by LPS addition measured after 16 hrs by RT-PCR analysis. The settings on record: dose microM <=50, time 17.0 hrs. The class given is functional, cell-based.
The subject of data set [14] is RAW264.7. The experiment in a line: Antiinflammatory activity against mouse RAW 264.7 cells assessed as inhibition of LPS-induced COX2 production preincubated for 1 hr followed by LPS addition measured after 16 hrs by Western blot analysis. It is filed as functional, cell-based. The settings on record: time 17.0 hrs.
For data set [15], the system named is RAW264.7. The experiment in a line: Antiinflammatory activity against mouse RAW 264.7 cells assessed as inhibition of LPS-induced translocation into nucleus upto 50 uM by preincubated for 1 hr followed by LPS addition measured after 16 hrs by immunofluorescence assay. The class given is functional, cell-based. The following applies: dose microM <=50, time 17.0 hrs.

Data set [16] deals with RAW264.7. Kind of data set: Antiinflammatory activity against mouse RAW 264.7 cells assessed as inhibition of LPS-induced IL-1beta mRNA level upto 50 uM preincubated for 1 hr followed by LPS addition measured after 16 hrs by RT-PCR analysis. The class given is functional, cell-based. The settings on record: dose microM <=50, time 17.0 hrs.
Data set [17] concerns RAW264.7. The experiment in a line: Antiinflammatory activity against mouse RAW 264.7 cells assessed as inhibition of LPS-induced iNOS production preincubated for 1 hr followed by LPS addition measured after 16 hrs by Western blot analysis. It is filed as functional, cell-based. The following applies: time 17.0 hrs.
Data set [18] deals with RAW264.7. Kind of data set: Antiinflammatory activity against mouse RAW 264.7 cells assessed as inhibition of LPS-induced IL-1alpha mRNA level upto 50 uM preincubated for 1 hr followed by LPS addition measured after 16 hrs by RT-PCR analysis. The following applies: dose microM <=50, time 17.0 hrs. The class given is functional, cell-based.
In data set [19] the test system is RAW264.7. Kind of data set: Antiinflammatory activity against mouse RAW 264.7 cells assessed as inhibition of LPS-induced […] p-p65 level preincubated for 1 hr followed by LPS addition measured after 16 hrs by Western blot analysis. The following applies: time 17.0 hrs. The class given is functional, cell-based.

Activity calls are given as the source filed them. No cut-off for these calls is given here.

A word on the IC50: it is the concentration that inhibits the measured activity by half. The term inhibition denotes how much of the control response was suppressed.

Regarding `O=C1C[C@H](O[C@H]2O[C@H](CO)[C@@H](O)[C@H](O)[C@@H]2O)CN1`, in the data set with RAW264.7 [1], the IC50 was 67.1 µM.

Regarding `O=C(NO)c1ccc(O)c(O)c1`, the inhibition entry in the data set on RAW264.7 [2], with RAW264.7 [3], with RAW264.7 [4], with RAW264.7 [5], in the data set with RAW264.7 [6] and with RAW264.7 [8] was “Active” in each case. Moreover, in the data set on RAW264.7 [9], the inhibition entry was “Active”. Moreover, the inhibition at 50 µM in the data set on RAW264.7 [7] turned out to be 70%.

As to `O=C1C[C@H](O[C@H]2O[C@H](CO)[C@@H](O)[C@H](O)[C@H]2O)CO1`, in the data set on RAW264.7 [1], the IC50 was 91.3 µM.

In the case of `O=C1C[C@@H](O[C@H]2O[C@H](CO)[C@@H](O)[C@H](O)[C@@H]2O)CN1Cc1ccccc1`, the IC50 in the data set with RAW264.7 [1] was determined as 97.2 µM.

Regarding `O=C1C[C@@H](O[C@@H]2O[C@H](CO)[C@H](O)[C@H](O)[C@H]2O)CO1`, in the data set on RAW264.7 [1], the IC50 was found to be 41.5 µM. In addition, the Activity entry with RAW264.7 [10] is given as “Non-Toxic”.

As to `C[C@@H]1O[C@@H](O[C@@H]2CC(=O)N(Cc3ccccc3)C2)[C@H](O)[C@H](O)[C@H]1O`, the concentration for half-maximal inhibition (IC50) in the data set on RAW264.7 [1] amounted to 56 µM.

On to `O=C1C[C@H](O[C@H]2O[C@H](CO)[C@@H](O)[C@H](O)[C@H]2O)CN1Cc1ccccc1`, for which, in the data set with RAW264.7 [1], the IC50 is 105 µM.

With `O=C1C[C@@H](O[C@@H]2O[C@H](CO)[C@@H](O)[C@H](O)[C@H]2O)CO1`, the IC50 in the data set on RAW264.7 [1] came to 41.9 µM. Further, in the data set on RAW264.7 [10], the Activity entry is on record as “Non-Toxic”.

For `O=C1C[C@H](O[C@H]2O[C@H](CO)[C@@H](O)[C@H](O)[C@@H]2O)CO1`, in the data set on RAW264.7 [1], the IC50 worked out at 38.7 µM. Further, the Activity result in the data set on RAW264.7 [10] is “Non-Toxic”.

With `O=C1C[C@@H](O[C@H]2O[C@H](CO)[C@@H](O)[C@H](O)[C@@H]2O)CO1`, the IC50 in the data set with RAW264.7 [1] was found to be 42.9 µM. The Activity result with RAW264.7 [10] is listed as “Non-Toxic”.

For `O=C1C[C@H](O[C@H]2O[C@H](CO)[C@@H](O)[C@H](O)[C@@H]2O)CN1Cc1ccccc1`, the IC50 in the data set on RAW264.7 [1] came to 64 µM.

For `C[C@@H]1O[C@@H](O[C@@H]2CNC(=O)C2)[C@H](O)[C@H](O)[C@H]1O`, in the data set on RAW264.7 [1], the IC50 was determined as 66.9 µM.

For `O=C1C[C@@H](O[C@H]2O[C@H](CO)[C@@H](O)[C@H](O)[C@H]2O)CN1`, the 50% inhibitory concentration (IC50) with RAW264.7 [1] stood at 89 µM.

Take `O=C1C[C@@H](O[C@H]2O[C@H](CO)[C@@H](O)[C@H](O)[C@H]2O)CN1Cc1ccccc1`: the concentration for half-maximal inhibition (IC50) with RAW264.7 [1] is 72.5 µM.

Regarding `C[C@@H]1O[C@@H](O[C@@H]2COC(=O)C2)[C@H](O)[C@H](O)[C@H]1O`, the IC50 in the data set with RAW264.7 [1] was found to be 60.7 µM.

Consider `O=C1C[C@H](O[C@@H]2O[C@H](CO)[C@@H](O)[C@H](O)[C@H]2O)CO1` [GOODYEROSIDE], for which the inhibition entry in the data set with RAW264.7 [11], with RAW264.7 [12], in the data set on RAW264.7 [13], in the data set on RAW264.7 [15], with RAW264.7 [16] and in the data set on RAW264.7 [18] was “Active” in each case. In the data set with RAW264.7 [19], the inhibition result was “Active”. Besides, the inhibition result in the data set with RAW264.7 [14] and in the data set with RAW264.7 [17] was “Dose-dependent effect” each time. Also, the IC50 in the data set on RAW264.7 [1] came out at 27.9 µM. Further, the Activity entry with RAW264.7 [10] is reported as “Non-Toxic”.

With `O=C1C[C@H](O[C@H]2O[C@H](CO)[C@@H](O)[C@H](O)[C@H]2O)CN1`, in the data set on RAW264.7 [1], the IC50 amounted to 80.9 µM.

Turning to `C[C@@H]1O[C@@H](O[C@H]2COC(=O)C2)[C@H](O)[C@H](O)[C@H]1O`, the IC50 with RAW264.7 [1] was 41.2 µM. Also, the Activity result with RAW264.7 [10] is listed as “Non-Toxic”.

Regarding `C[C@@H]1O[C@@H](O[C@H]2CNC(=O)C2)[C@H](O)[C@H](O)[C@H]1O`, the IC50 in the data set on RAW264.7 [1] was found to be 116 µM.

For `C[C@@H]1O[C@@H](O[C@H]2CC(=O)N(Cc3ccccc3)C2)[C@H](O)[C@H](O)[C@H]1O`, the IC50 in the data set on RAW264.7 [1] came to 69.7 µM.

Regarding `O=C1C[C@@H](O[C@H]2O[C@H](CO)[C@@H](O)[C@H](O)[C@@H]2O)CN1`, in the data set with RAW264.7 [1], the IC50 was 108 µM.

Turning to `O=C1C[C@H](O[C@H]2O[C@H](CO)[C@H](O)[C@H](O)[C@H]2O)CO1`, the IC50 in the data set with RAW264.7 [1] stood at 66.5 µM.

Values taken from ChEMBL document CHEMBL4680294, “Synthesis of nature product kinsenoside analogues with anti-inflammatory activity” (Bioorg Med Chem, 2021).
